Assay [1] addresses T1, PRMT5 (Homo sapiens, UniProt O14744).
T1 construct: purchased Viva (custom protein)
Kind of assay: PRMT5 biochemical IC50 assay with no cofactor. The conditions noted are these: PRMT5, no cofactor; read-out: No Cofactor/rel IC50. From the text: Table 1 indicates IC50 values (μM) against PRMT5 for exemplary compounds in the presence of SAM as cofactor, with no cofactor, and with MTA as cofactor, respectively (columns 4-6). […] Ki values can be calculated from the IC50 values as described in the Examples section. As detailed in the Examples section, for the assay performed in the presence of SAM, IC50=Ki×1.5 (Ki=IC50/1.5).

In assay [2] the test system is HAP1 MTAP-intact cell line. Briefly: SDMA in-cell western assay, HAP1 MTAP-intact. To be noted: Homo sapiens, HAP1, SDMA in-cell western, HAP1 MTAP-intact; read-out: MTAP HAP1 intact IC50. The class given is cell-based. In outline:
(§1)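 IC50 values come from SDMA signal quantified by in-cell western in two HAP1 lines, one with native MTAP levels and one lacking MTAP.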

Assay [3] relates to HAP1 MTAP-deleted cell line. Kind of assay: Viability assay, MTAP-deleted cell line. The class given is cell-based. To be noted: Homo sapiens, HAP1, viability assay, MTAP-deleted cell line; read-out: HAP1 MTAP deleted viability. From the text: Table 1 additionally indicates IC50 values in a viability assay for the MTAP-deleted cell line (column 10), indicating the effect of treatment with compound on cell survival.

In assay [4] the target is T1, PRMT5. Briefly: PRMT5 biochemical IC50 assay with SAM as cofactor. To be noted: PRMT5, SAM as cofactor; read-out: SAM IC50.
The target of assay [5] is T1, PRMT5. Kind of assay: PRMT5 biochemical IC50 assay with MTA as cofactor. The conditions noted are these: PRMT5, MTA as cofactor; read-out: MTA IC50.
For assay [6], the system named is HAP1 MTAP-deleted cell line. Briefly: SDMA in-cell western assay, HAP1 MTAP-deleted. Type of assay: cell-based. The conditions noted are these: for IC50: Homo sapiens, HAP1, SDMA in-cell western, HAP1 MTAP-deleted, read-out: HAP1 MTAP deleted IC50; for MTAP intact/deleted ratio: IC50 ratio HAP1 MTAP-intact / HAP1 MTAP-deleted, SDMA in-cell western. An outline of the steps: as §1

T1 sequence (O14744 whole entry): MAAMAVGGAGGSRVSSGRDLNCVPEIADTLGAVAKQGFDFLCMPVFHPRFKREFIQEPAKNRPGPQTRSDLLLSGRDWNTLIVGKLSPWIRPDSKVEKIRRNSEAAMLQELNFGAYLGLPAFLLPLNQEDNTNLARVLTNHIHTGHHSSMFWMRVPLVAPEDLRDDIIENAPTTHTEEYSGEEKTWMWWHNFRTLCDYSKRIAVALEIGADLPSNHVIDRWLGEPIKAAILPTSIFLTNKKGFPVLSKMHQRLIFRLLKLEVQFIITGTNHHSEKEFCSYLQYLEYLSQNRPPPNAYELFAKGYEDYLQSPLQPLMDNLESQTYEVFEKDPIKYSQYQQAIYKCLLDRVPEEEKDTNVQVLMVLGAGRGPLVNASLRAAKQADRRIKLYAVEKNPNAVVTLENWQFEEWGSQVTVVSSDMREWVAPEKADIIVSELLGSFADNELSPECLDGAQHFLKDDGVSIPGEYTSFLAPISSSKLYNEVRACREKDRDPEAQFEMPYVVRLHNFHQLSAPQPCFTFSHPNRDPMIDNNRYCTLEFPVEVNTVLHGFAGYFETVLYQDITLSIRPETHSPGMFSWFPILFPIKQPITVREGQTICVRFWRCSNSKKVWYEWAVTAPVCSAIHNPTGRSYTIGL
T1 sequence (Q9BQA1 whole entry partner): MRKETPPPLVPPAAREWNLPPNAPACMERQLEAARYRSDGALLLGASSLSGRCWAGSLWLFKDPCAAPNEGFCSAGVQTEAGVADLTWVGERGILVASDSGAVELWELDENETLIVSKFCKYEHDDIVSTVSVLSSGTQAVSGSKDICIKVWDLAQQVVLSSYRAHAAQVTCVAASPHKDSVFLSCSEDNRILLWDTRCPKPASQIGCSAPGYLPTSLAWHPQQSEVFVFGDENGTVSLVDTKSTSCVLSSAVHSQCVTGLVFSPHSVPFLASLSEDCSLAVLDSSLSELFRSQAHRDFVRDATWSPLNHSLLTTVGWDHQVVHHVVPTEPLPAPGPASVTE

As to `C[C@@H]1CCC[C@H]2CN(C(=O)C(=O)Nc3cncc(C(N)=O)c3)CC[C@H]21` (racemic) [Compound 515, 5-(2-(5-methyloctahydroisoquinolin-2(1H)-yl)-2-oxoacetamido)nicotinamide], the IC50 in assay [1] was above 500 nM; in assay [2], above 1000 nM; in assay [3] it was above 10000 nM; in assay [4] it was 50 to 500 nM; in assay [5] it was 50 to 500 nM; in assay [6], above 1000 nM. In addition, the MTAP intact/deleted ratio entry in assay [6] is “B (an IC50 ratio greater than or equal to 3 fold but lower than 10 fold)”.

`C[C@@H]1CC[C@@H]([C@@H]2CCC(O)C2)N(C(=O)C(=O)Nc2cncc(C(N)=O)c2)C1` (mixture of isomers) [Compound 517, 5-[[2-[(2S,5R)-2-(3-Hydroxycyclopentyl)-5-methyl-1-piperidyl]-2-oxo-acetyl]amino]pyridine-3-carboxamide]: the IC50 in assay [1] was above 500 nM; in assay [2], above 1000 nM; in assay [3], above 10000 nM; in assay [4], above 500 nM; in assay [5], 50 to 500 nM; in assay [6], above 1000 nM. Besides, the MTAP intact/deleted ratio result in assay [6] was “C (an IC50 ratio of less than 3 fold)”.

As to `C[C@@H]1CC[C@@](C)(c2ccccc2)N(C(=O)C(=O)Nc2cncc(C(N)=O)c2)C1` (racemic) [Compound 521, 5-(2-(2,5-dimethyl-2-phenylpiperidin-1-yl)-2-oxoacetamido)nicotinamide], the IC50 was above 500 nM in assay [1]; above 1000 nM in assay [2]; above 10000 nM in assay [3]; above 500 nM in assay [4]; 50 to 500 nM in assay [5]; above 1000 nM in assay [6]. Further, the MTAP intact/deleted ratio result in assay [6] is “B (an IC50 ratio greater than or equal to 3 fold but lower than 10 fold)”.

With `C[C@@H]1CC[C@@H](c2ccc(-c3ccn[nH]3)cc2)N(C(=O)C(=O)Nc2cncc(C(N)=O)c2)C1` (racemic) [Compound 524, 5-[[2-[(2S,5R)-5-methyl-2-[4-(1H-pyrazol-5-yl)phenyl]-1-piperidyl]-2-oxo-acetyl]amino]pyridine-3-carboxamide], the IC50 was 50 to 500 nM in assay [1]; above 1000 nM in assay [2]; 1000 to 10000 nM in assay [3]; 50 to 500 nM in assay [4]; 50 to 500 nM in assay [5]; 100 to 1000 nM in assay [6]. Moreover, the MTAP intact/deleted ratio entry in assay [6] was “A (an IC50 ratio greater than or equal to 10 fold)”.

With `Cc1cc(NC(=O)C(=O)N2C[C@H](C)CC[C@H]2c2ccc(-c3cn[nH]c3)cc2)cnc1N` (racemic) [Compound 525, rac N-(6-amino-5-methyl-3-pyridyl)-2-[(2S,5R)-5-methyl-2-[4-(1H-pyrazol-4-yl)phenyl]-1-piperidyl]-2-oxo-acetamide], the IC50 is 50 to 500 nM in assay [1]; 100 to 1000 nM in assay [2]; below 1000 nM in assay [3]; above 500 nM in assay [4]; 50 to 500 nM in assay [5]; below 100 nM in assay [6]. Also, the MTAP intact/deleted ratio result in assay [6] is reported as “A (an IC50 ratio greater than or equal to 10 fold)”.

With `Cc1cc(NC(=O)C(=O)N2C[C@H](C)CC[C@H]2c2ccc(-c3ccn[nH]3)cc2)cnc1N` (racemic) [Compound 526, rac N-(6-amino-5-methyl-3-pyridyl)-2-[(2S,5R)-5-methyl-2-[4-(1H-pyrazol-5-yl)phenyl]-1-piperidyl]-2-oxo-acetamide], the IC50 in assay [1] was 50 to 500 nM; in assay [2], 100 to 1000 nM; in assay [3], below 1000 nM; in assay [4], 50 to 500 nM; in assay [5], 50 to 500 nM; in assay [6], below 100 nM. Also, the MTAP intact/deleted ratio entry in assay [6] was “A (an IC50 ratio greater than or equal to 10 fold)”.

For the origin of these results see patent publication US11999727B2 (Tango Therapeutics, Inc., priority 2020, dated 2024).
